Measurements taken from ChEMBL document CHEMBL1201862, “PubChem BioAssay data set” (2004).
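Step 1: Grow cells in 96-well plates. Step 2: Expose to compound for 48 hours at 5 concentrations. Step 3: Interpolate endpoints linearly; if unreached, use highest concentration. The concentration for 50% growth inhibition is given as GI50.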 Calls of active or inactive are those of the source. Rule as the data show it: active = GI50 up to about 1.1 µM and inactive = higher.

Columns and labels:
Experiment in all cases: inhibition of tumour cell growth, NCI panel, 48 h
786-0 = system: 786-0
OVCAR-5 = system: OVCAR-5
UACC-62 = system: UACC-62
SF-268 = system: SF-268
HT-29 = system: HT-29
SN12C = system: SN12C
K562 = system: K562
SW-620 = system: SW-620
EKVX = system: EKVX
SNB-75 = system: SNB-75
HCC 2998 = system: HCC 2998
RXF 393 = system: RXF 393
Malme-3M = system: Malme-3M
HOP-92 = system: HOP-92
CCRF-CEM = system: CCRF-CEM

Row | Compound | GI50 (786-0) | GI50 (OVCAR-5) | GI50 (UACC-62) | GI50 (SF-268) | GI50 (HT-29) | GI50 (SN12C) | GI50 (K562) | GI50 (SW-620) | GI50 (EKVX) | GI50 (SNB-75) | GI50 (HCC 2998) | GI50 (RXF 393) | GI50 (Malme-3M) | GI50 (HOP-92) | GI50 (CCRF-CEM)
1 | O=C(CC(=O)Nc1cccc(Cl)c1)NNCC(=O)Nc1nnc(-c2ccccc2)s1 | 16.4 µM (inactive) | > 100 µM (inactive) | 62.4 µM (inactive) | 31.8 µM (inactive) | 80 µM (inactive) | > 100 µM (inactive) | 27.4 µM (inactive) | 39.4 µM (inactive) | 57.3 µM (inactive) | 9.38 µM (inactive) | > 100 µM (inactive) | – | – | – | –
2 | CCN(CC)CC(C(=O)Nc1c(C)cccc1C)/C(C)=N\NC(=O)C[N+](C)(C)C (centres undefined) | > 100 µM (inactive) | > 100 µM (inactive) | > 100 µM (inactive) | > 100 µM (inactive) | > 100 µM (inactive) | > 100 µM (inactive) | > 100 µM (inactive) | > 100 µM (inactive) | – | > 100 µM (inactive) | > 100 µM (inactive) | > 100 µM (inactive) | > 100 µM (inactive) | > 100 µM (inactive) | –
3 | O=C(CO[N+](=O)[O-])OCC(=O)c1ccccc1 | > 100 µM (inactive) | > 100 µM (inactive) | – | > 100 µM (inactive) | > 100 µM (inactive) | > 100 µM (inactive) | > 100 µM (inactive) | > 100 µM (inactive) | > 100 µM (inactive) | > 100 µM (inactive) | > 100 µM (inactive) | > 100 µM (inactive) | > 100 µM (inactive) | > 100 µM (inactive) | > 100 µM (inactive)
4 | CCOC(=O)C1S/C(=N\c2ccc(Cl)cc2)N=C1C (centres undefined) | 16.9 µM (inactive) | 22.1 µM (inactive) | – | 17 µM (inactive) | 17.1 µM (inactive) | 17.5 µM (inactive) | 19.4 µM (inactive) | 19.9 µM (inactive) | 21.4 µM (inactive) | 21.3 µM (inactive) | 17.7 µM (inactive) | 16.6 µM (inactive) | 19.9 µM (inactive) | 15.9 µM (inactive) | –
5 | C/C(=N\NC(N)=O)C(CN1CCCCC1)C(c1ccccc1)c1c(O)c2ccccc2oc1=O (centres undefined) | 0.6 µM (active) | > 100 µM (inactive) | > 100 µM (inactive) | > 100 µM (inactive) | > 100 µM (inactive) | > 100 µM (inactive) | > 100 µM (inactive) | > 100 µM (inactive) | > 100 µM (inactive) | > 100 µM (inactive) | > 100 µM (inactive) | > 100 µM (inactive) | > 100 µM (inactive) | – | > 100 µM (inactive)
6 | COc1ccc2c(CCNS(=O)(=O)c3ccccc3)c(C(C)=O)[nH]c2c1[N+](=O)[O-] | 77.8 µM (inactive) | > 100 µM (inactive) | 48.5 µM (inactive) | 53.3 µM (inactive) | > 100 µM (inactive) | > 100 µM (inactive) | > 100 µM (inactive) | > 100 µM (inactive) | – | – | > 100 µM (inactive) | – | – | – | > 100 µM (inactive)
7 | Cn1c(=O)c2[nH]cnc2n(CC(N)=O)c1=O | > 100 µM (inactive) | – | > 100 µM (inactive) | > 100 µM (inactive) | > 100 µM (inactive) | > 100 µM (inactive) | > 100 µM (inactive) | > 100 µM (inactive) | > 100 µM (inactive) | > 100 µM (inactive) | – | – | > 100 µM (inactive) | > 100 µM (inactive) | > 100 µM (inactive)
8 | CN1CCN(CCNc2ccc(CO)c3sc4ccccc4c(=O)c23)CC1 | 5.87 µM (inactive) | 16.6 µM (inactive) | 13 µM (inactive) | 11.6 µM (inactive) | 4.15 µM (inactive) | – | 3.84 µM (inactive) | 4.18 µM (inactive) | – | 9.48 µM (inactive) | 6.87 µM (inactive) | – | 11.5 µM (inactive) | 13.4 µM (inactive) | 4.34 µM (inactive)
9 | [N-]=[N+]=CC(=O)C1(C(=O)C=[N+]=[N-])CC1 | > 100 µM (inactive) | > 100 µM (inactive) | – | > 100 µM (inactive) | > 100 µM (inactive) | > 100 µM (inactive) | > 100 µM (inactive) | > 100 µM (inactive) | > 100 µM (inactive) | > 100 µM (inactive) | > 100 µM (inactive) | > 100 µM (inactive) | > 100 µM (inactive) | – | > 100 µM (inactive)
10 | O=C(Cc1ccccc1)N/N=C(/c1nc2ccc([N+](=O)[O-])cc2nc1O)C(O)c1ccco1 (centres undefined) | > 100 µM (inactive) | > 100 µM (inactive) | > 100 µM (inactive) | > 100 µM (inactive) | > 100 µM (inactive) | > 100 µM (inactive) | 44.4 µM (inactive) | > 100 µM (inactive) | > 100 µM (inactive) | > 100 µM (inactive) | > 100 µM (inactive) | – | > 100 µM (inactive) | > 100 µM (inactive) | 43.7 µM (inactive)
11 | CCOc1ccc(NC(=O)/C(Cc2nc3ccccc3nc2O)=N\O)cc1 | > 100 µM (inactive) | > 100 µM (inactive) | > 100 µM (inactive) | > 100 µM (inactive) | – | – | > 100 µM (inactive) | > 100 µM (inactive) | 75 µM (inactive) | 70.1 µM (inactive) | > 100 µM (inactive) | > 100 µM (inactive) | > 100 µM (inactive) | 54.2 µM (inactive) | > 100 µM (inactive)
12 | CC(C)C(Nc1c2ccccc2[n+]([O-])c2ccccc12)C(=O)O (centres undefined) | > 100 µM (inactive) | > 100 µM (inactive) | 57.3 µM (inactive) | 55.3 µM (inactive) | > 100 µM (inactive) | 61.1 µM (inactive) | 38.5 µM (inactive) | > 100 µM (inactive) | > 100 µM (inactive) | 58.9 µM (inactive) | > 100 µM (inactive) | – | 28.1 µM (inactive) | – | 47.8 µM (inactive)
13 | CCOC(=O)C(=Cc1ccc(C(=O)OC)cc1)C(=O)OCC | 1.62 µM (inactive) | 7.16 µM (inactive) | 2.04 µM (inactive) | 2.4 µM (inactive) | 3.21 µM (inactive) | 2.25 µM (inactive) | 2.32 µM (inactive) | 2.24 µM (inactive) | 11.1 µM (inactive) | 2.07 µM (inactive) | 4.06 µM (inactive) | – | 1.8 µM (inactive) | 1.67 µM (inactive) | 1.58 µM (inactive)
14 | N/N=C(\CC1OC(=O)c2ccccc21)c1ccco1 (centres undefined) | < 0.01 µM (active) | > 100 µM (inactive) | > 100 µM (inactive) | > 100 µM (inactive) | > 100 µM (inactive) | – | 50 µM (inactive) | > 100 µM (inactive) | > 100 µM (inactive) | > 100 µM (inactive) | > 100 µM (inactive) | > 100 µM (inactive) | > 100 µM (inactive) | > 100 µM (inactive) | 59.2 µM (inactive)
15 | C/C(=N\NS(=O)(=O)c1ccc(C)cc1)C(CN1CCOCC1)C(c1ccccc1)c1c(O)c2ccccc2oc1=O (centres undefined) | > 100 µM (inactive) | > 100 µM (inactive) | > 100 µM (inactive) | > 100 µM (inactive) | > 100 µM (inactive) | > 100 µM (inactive) | 53.2 µM (inactive) | 30.6 µM (inactive) | > 100 µM (inactive) | > 100 µM (inactive) | – | 68.2 µM (inactive) | > 100 µM (inactive) | 59.8 µM (inactive) | 37.5 µM (inactive)
